According to US10322111B2, “Chemokine receptor binding heterocyclic compounds with enhanced efficacy” (Genzyme Corporation, priority 2001, dated 2019):
Read-outs that look alike come from different tables or passages of the source.

How the values were obtained:
[1] = test system: unseparated and low density nucleated cells; conditions: average of 5 donors, 80 μg/kg s.c.
[2] = test system: CFU-GM progenitor cells; conditions: 80 μg/kg s.c.; for % CHG, CFU-GM, agar culture / mean fold change compared to T 0, CFU-GM, agar culture, MEAN: all five donors

c1cc(CN2CCCNCCNCCCNCC2)ccc1CN1CCCNCCNCCCNCC1 [AMD3100, 1,1′-[1,4-phenylene-bis(methylene)]-bis-1,4,8,11-tetraazacyclotetradecane]
% CHG, nucleated cellularity PBL-LD ([1]; T = 1 h after injection): 86.2% | % CHG, nucleated cellularity PBL-US ([1]; T = 1 h after injection): 68.6% | Fold Change Compared to TIME = 0, nucleated cellularity PBL-LD, MEAN ([1]; T = 1 h after injection): 1.86 fold | Fold Change Compared to TIME = 0, nucleated cellularity PBL-US, MEAN ([1]; T = 1 h after injection): 1.69 fold | % CHG, nucleated cellularity PBL-LD ([1]; T = 3 h after injection): 185.6% | % CHG, nucleated cellularity PBL-US ([1]; T = 3 h after injection): 180.2% | Fold Change Compared to TIME = 0, nucleated cellularity PBL-LD, MEAN ([1]; T = 3 h after injection): 2.86 fold | Fold Change Compared to TIME = 0, nucleated cellularity PBL-US, MEAN ([1]; T = 3 h after injection): 2.80 fold | % CHG, nucleated cellularity PBL-LD ([1]; T = 6 h after injection): 266.3% | % CHG, nucleated cellularity PBL-US ([1]; T = 6 h after injection): 225.8% | Fold Change Compared to TIME = 0, nucleated cellularity PBL-LD, MEAN ([1]; T = 6 h after injection): 3.66 fold | Fold Change Compared to TIME = 0, nucleated cellularity PBL-US, MEAN ([1]; T = 6 h after injection): 3.26 fold | % CHG, nucleated cellularity PBL-LD ([1]; T = 9 h after injection): 264.3% | % CHG, nucleated cellularity PBL-US ([1]; T = 9 h after injection): 209.4% | Fold Change Compared to TIME = 0, nucleated cellularity PBL-LD, MEAN ([1]; T = 9 h after injection): 3.64 fold | Fold Change Compared to TIME = 0, nucleated cellularity PBL-US, MEAN ([1]; T = 9 h after injection): 3.09 fold | % CHG, nucleated cellularity PBL-LD ([1]; T = 24 h after injection): 4.6% | % CHG, nucleated cellularity PBL-US ([1]; T = 24 h after injection): 7.0% | Fold Change Compared to TIME = 0, nucleated cellularity PBL-LD, MEAN ([1]; T = 24 h after injection): 1.05 fold | Fold Change Compared to TIME = 0, nucleated cellularity PBL-US, MEAN ([1]; T = 24 h after injection): 1.07 fold | Absolute # of Progenitors per ML, CFU-GM, AGAR Culture ([2]; P1, T = 1 h after injection): 710 per ML | fold change from T=0, CFU-GM, agar culture ([2]; P1, T = 1 h after injection): 3.05 fold | Absolute # of Progenitors per ML, CFU-GM, AGAR Culture ([2]; P1, T = 3 h after injection): 2070 per ML | fold change from T=0, CFU-GM, agar culture ([2]; P1, T = 3 h after injection): 8.88 fold | Absolute # of Progenitors per ML, CFU-GM, AGAR Culture ([2]; P1, T = 6 h after injection): 4142 per ML | fold change from T=0, CFU-GM, agar culture ([2]; P1, T = 6 h after injection): 17.77 fold | Absolute # of Progenitors per ML, CFU-GM, AGAR Culture ([2]; P2, T = 1 h after injection): 376 per ML | fold change from T=0, CFU-GM, agar culture ([2]; P2, T = 1 h after injection): 3.74 fold | Absolute # of Progenitors per ML, CFU-GM, AGAR Culture ([2]; P2, T = 3 h after injection): 953 per ML | fold change from T=0, CFU-GM, agar culture ([2]; P2, T = 3 h after injection): 9.49 fold | Absolute # of Progenitors per ML, CFU-GM, AGAR Culture ([2]; P2, T = 6 h after injection): 2409 per ML | fold change from T=0, CFU-GM, agar culture ([2]; P2, T = 6 h after injection): 24.01 fold | Absolute # of Progenitors per ML, CFU-GM, AGAR Culture ([2]; P2, T = 9 h after injection): 1032 per ML | fold change from T=0, CFU-GM, agar culture ([2]; P2, T = 9 h after injection): 10.28 fold | Absolute # of Progenitors per ML, CFU-GM, AGAR Culture ([2]; P2, T = 24 h after injection): 371 per ML | fold change from T=0, CFU-GM, agar culture ([2]; P2, T = 24 h after injection): 3.69 fold | Absolute # of Progenitors per ML, CFU-GM, AGAR Culture ([2]; P3, T = 1 h after injection): 234 per ML | fold change from T=0, CFU-GM, agar culture ([2]; P3, T = 1 h after injection): 1.67 fold | Absolute # of Progenitors per ML, CFU-GM, AGAR Culture ([2]; P3, T = 3 h after injection): 1049 per ML | fold change from T=0, CFU-GM, agar culture ([2]; P3, T = 3 h after injection): 7.47 fold | Absolute # of Progenitors per ML, CFU-GM, AGAR Culture ([2]; P3, T = 6 h after injection): 1972 per ML | fold change from T=0, CFU-GM, agar culture ([2]; P3, T = 6 h after injection): 14.04 fold | Absolute # of Progenitors per ML, CFU-GM, AGAR Culture ([2]; P3, T = 9 h after injection): 1085 per ML | fold change from T=0, CFU-GM, agar culture ([2]; P3, T = 9 h after injection): 7.72 fold | Absolute # of Progenitors per ML, CFU-GM, AGAR Culture ([2]; P3, T = 24 h after injection): 159 per ML | fold change from T=0, CFU-GM, agar culture ([2]; P3, T = 24 h after injection): 1.13 fold | Absolute # of Progenitors per ML, CFU-GM, AGAR Culture ([2]; P4, T = 1 h after injection): 336 per ML | fold change from T=0, CFU-GM, agar culture ([2]; P4, T = 1 h after injection): 2.71 fold | Absolute # of Progenitors per ML, CFU-GM, AGAR Culture ([2]; P4, T = 3 h after injection): 1299 per ML | fold change from T=0, CFU-GM, agar culture ([2]; P4, T = 3 h after injection): 10.46 fold | Absolute # of Progenitors per ML, CFU-GM, AGAR Culture ([2]; P4, T = 6 h after injection): 1623 per ML | fold change from T=0, CFU-GM, agar culture ([2]; P4, T = 6 h after injection): 13.07 fold | Absolute # of Progenitors per ML, CFU-GM, AGAR Culture ([2]; P4, T = 9 h after injection): 1268 per ML | fold change from T=0, CFU-GM, agar culture ([2]; P4, T = 9 h after injection): 10.22 fold | Absolute # of Progenitors per ML, CFU-GM, AGAR Culture ([2]; P4, T = 24 h after injection): 162 per ML | fold change from T=0, CFU-GM, agar culture ([2]; P4, T = 24 h after injection): 1.30 fold | Absolute # of Progenitors per ML, CFU-GM, AGAR Culture ([2]; P5, T = 1 h after injection): 298 per ML | Absolute # of Progenitors per ML, CFU-GM, AGAR Culture ([2]; P5, T = 3 h after injection): 664 per ML | Absolute # of Progenitors per ML, CFU-GM, AGAR Culture ([2]; P5, T = 6 h after injection): 2153 per ML | Absolute # of Progenitors per ML, CFU-GM, AGAR Culture ([2]; P5, T = 9 h after injection): 1326 per ML | Absolute # of Progenitors per ML, CFU-GM, AGAR Culture ([2]; P5, T = 24 h after injection): 229 per ML | fold change from T=0, CFU-GM, agar culture ([2]; P6, T = 1 h after injection): 2.87 fold | fold change from T=0, CFU-GM, agar culture ([2]; P6, T = 3 h after injection): 6.40 fold | fold change from T=0, CFU-GM, agar culture ([2]; P6, T = 6 h after injection): 20.75 fold | fold change from T=0, CFU-GM, agar culture ([2]; P6, T = 9 h after injection): 12.78 fold | fold change from T=0, CFU-GM, agar culture ([2]; P6, T = 24 h after injection): 2.20 fold | % CHG, CFU-GM, agar culture ([2]; T = 1 h after injection): 180.8% | mean fold change compared to T 0, CFU-GM, agar culture, MEAN ([2]; T = 1 h after injection): 2.81 fold | % CHG, CFU-GM, agar culture ([2]; T = 3 h after injection): 754.1% | mean fold change compared to T 0, CFU-GM, agar culture, MEAN ([2]; T = 3 h after injection): 8.54 fold | % CHG, CFU-GM, agar culture ([2]; T = 6 h after injection): 1692.8% | mean fold change compared to T 0, CFU-GM, agar culture, MEAN ([2]; T = 6 h after injection): 17.93 fold | % CHG, CFU-GM, agar culture ([2]; T = 9 h after injection): 924.9% | mean fold change compared to T 0, CFU-GM, agar culture, MEAN ([2]; T = 9 h after injection): 10.25 fold | % CHG, CFU-GM, agar culture ([2]; T = 24 h after injection): 108.3% | mean fold change compared to T 0, CFU-GM, agar culture, MEAN ([2]; T = 24 h after injection): 2.08 fold
